Results as given in ChEMBL document CHEMBL4689842, “EUbOPEN Chemogenomics Library wave 1” (2021).

Test system: Fibroblast
Experiment: Incucyte cell viability with human fibroblast; note: filed as whole numbers so only -1 and 0 and 1 occur
Type: toxicity, cell-based
Settings: 10 µM, compound concentration 10 uM
[1] = 0 h, replicate number 1, timepoint 0 hours
[2] = 12 h, replicate number 1, timepoint 12 hours
[3] = 18 h, replicate number 1, timepoint 18 hours
[4] = 24 h, replicate number 1, timepoint 24 hours
[5] = 24 h, replicate number 2, timepoint 24 hours
[6] = 6 h, replicate number 1, timepoint 6 hours
[7] = 0 h, replicate number 2, timepoint 0 hours
[8] = 6 h, replicate number 2, timepoint 6 hours
[9] = 12 h, replicate number 2, timepoint 12 hours
[10] = 18 h, replicate number 2, timepoint 18 hours

CCOc1cc2ncc(C#N)c(Nc3ccc(OCc4ccccn4)c(Cl)c3)c2cc1NC(=O)/C=C/CN(C)C [NERATINIB]
Growth Rate [1]: 0 | Growth Rate [2]: 1 | Growth Rate [3]: 0 | Growth Rate [4]: 0 | Growth Rate [5]: 1

CCc1cccc(CC)c1NC(=O)c1nn(C)c2c1CCc1cnc(Nc3ccc(C(=O)NC4CCN(C)CC4)cc3OC(F)(F)F)nc1-2
Growth Rate [1]: 0 | Growth Rate [6]: 1 | Growth Rate [2]: 0 | Growth Rate [3]: 0 | Growth Rate [4]: 0 | Growth Rate [5]: 1

CCc1cccc(CC)c1NC(=O)c1nn(C)c2c1CCc1cnc(Nc3ccc(N4CCN(C)CC4)cc3OC)nc1-2
Growth Rate [7]: 1 | Growth Rate [6]: 0 | Growth Rate [2]: 0 | Growth Rate [3]: 0 | Growth Rate [4]: 0

Cc1ccc(C(=O)Nc2cccc(C(F)(F)F)c2)cc1Nc1nc(-c2cccnc2)nc2c1cnn2C
Growth Rate [6]: 0 | Growth Rate [2]: 0 | Growth Rate [3]: 0 | Growth Rate [4]: 0

O=C(Nc1cccnn1)N1CCC(=Cc2cccc(Oc3ccc(C(F)(F)F)cn3)c2)CC1
Growth Rate [1]: 0 | Growth Rate [6]: 0 | Growth Rate [2]: 0 | Growth Rate [3]: 0 | Growth Rate [4]: 0 | Growth Rate [5]: 1

O=C(Nc1ccc(-c2ccnc(Nc3ccc(N4CCOCC4)cc3)n2)cc1)[C@@H]1CCCN1
Growth Rate [1]: 0 | Growth Rate [3]: 1 | Growth Rate [4]: 0

COc1cc2ncnc(Nc3ccc(F)c(Cl)c3)c2cc1NC(=O)/C=C/CN1CCCCC1 [DACOMITINIB ANHYDROUS]
Growth Rate [7]: 1 | Growth Rate [6]: 0 | Growth Rate [2]: 0 | Growth Rate [3]: 0 | Growth Rate [4]: 0

CNc1cc(Oc2cc(C(=O)Nc3cc(N4CCN(C)CC4)cc(C(F)(F)F)c3)ccc2C)ncn1
Growth Rate [1]: 0 | Growth Rate [6]: 0 | Growth Rate [2]: 0 | Growth Rate [3]: 0 | Growth Rate [4]: 0

Cc1cn(-c2cc(NC(=O)c3ccc(C)c(Nc4nccc(-c5cccnc5)n4)c3)cc(C(F)(F)F)c2)cn1 [NILOTINIB]
Growth Rate [1]: 0 | Growth Rate [6]: 0 | Growth Rate [2]: 0 | Growth Rate [3]: 0 | Growth Rate [4]: 0

COc1ccc(-c2ccc3c(N4CCOCC4)nc(N4C[C@@H](C)O[C@@H](C)C4)nc3n2)cc1CO [Ku-0063794]
Growth Rate [1]: 1 | Growth Rate [8]: 1 | Growth Rate [2]: 1 | Growth Rate [9]: 0 | Growth Rate [3]: 1 | Growth Rate [10]: 0 | Growth Rate [4]: 0

CN1CCN(C(=O)C(C)(C)c2ccc(C(=O)Nc3cn4cc(-c5cc(C(C)(C)C)cc(C(C)(C)C)c5)ccc4n3)cc2)CC1 [T3-CLK-N]
Growth Rate [7]: 0 | Growth Rate [3]: 1 | Growth Rate [4]: 1

COc1cccc2cc(-c3nc([C@H]4CC[C@H](C(=O)O)CC4)n4ncnc(N)c34)[nH]c12 [OSI-027]
Growth Rate [1]: 0 | Growth Rate [2]: 0 | Growth Rate [9]: 1 | Growth Rate [3]: 0 | Growth Rate [4]: 0

CN([C@@H](Cc1ccc(OS(=O)(=O)c2cccc3cnccc23)cc1)C(=O)N1CCN(c2ccccc2)CC1)S(=O)(=O)c1cccc2cnccc12
Growth Rate [1]: 1 | Growth Rate [8]: 0 | Growth Rate [2]: 1 | Growth Rate [9]: 0 | Growth Rate [3]: 1 | Growth Rate [4]: 0 | Growth Rate [5]: 1

CN(C)C(=O)C(CCN1CCC(O)(c2ccc(Cl)cc2)CC1)(c1ccccc1)c1ccccc1.Cl [LOPERAMIDE HYDROCHLORIDE]
Growth Rate [6]: 0 | Growth Rate [2]: 0 | Growth Rate [3]: 0 | Growth Rate [4]: 0

C=C1/C(=C\C=C2/CCC[C@]3(C)[C@@H]([C@H](C)/C=C/[C@H](C)C(C)C)CC[C@@H]23)C[C@@H](O)C[C@@H]1O [DOXERCALCIFEROL]
Growth Rate [1]: 0 | Growth Rate [8]: 0 | Growth Rate [2]: 1 | Growth Rate [9]: 0 | Growth Rate [3]: 1 | Growth Rate [10]: 0 | Growth Rate [4]: 0

CCn1c(=O)c(-c2ccc(-c3cncs3)cc2Cl)cc2cnc(Nc3ccc(N4CCN(C)CC4)cc3)nc21
Growth Rate [1]: 0 | Growth Rate [3]: 1 | Growth Rate [4]: 0

CN1C2CCC1CC(OC(c1ccc(F)cc1)c1ccc(F)cc1)C2.Cl (configuration not stated)
Growth Rate [6]: 1 | Growth Rate [8]: 0 | Growth Rate [2]: 1 | Growth Rate [9]: 0 | Growth Rate [3]: 1 | Growth Rate [10]: 0 | Growth Rate [4]: 0

NC(=O)c1cccc(-c2cc(Nc3ccc(OC(F)(F)F)cc3)ncn2)c1
Growth Rate [1]: 1 | Growth Rate [7]: 0 | Growth Rate [6]: 0 | Growth Rate [8]: 1 | Growth Rate [2]: 0 | Growth Rate [9]: 1 | Growth Rate [3]: 0 | Growth Rate [10]: 1 | Growth Rate [4]: 0 | Growth Rate [5]: 1

Cl.Oc1ccc2c3c1O[C@H]1c4[nH]c5c(c4C[C@@]4(O)[C@@H](C2)N(CC2CC2)CC[C@]314)C[C@@]1(O)[C@H]2Cc3ccc(O)c4c3[C@@]1(CCN2CC1CC1)[C@H]5O4
Growth Rate [1]: 0 | Growth Rate [7]: 1 | Growth Rate [6]: 0 | Growth Rate [2]: 0 | Growth Rate [9]: 1 | Growth Rate [3]: 0 | Growth Rate [4]: 0 | Growth Rate [5]: 1

C[C@H]1Oc2cc(cnc2N)-c2c(nn(C)c2C#N)CN(C)C(=O)c2ccc(F)cc21 [LORLATINIB]
Growth Rate [7]: 0 | Growth Rate [6]: 0 | Growth Rate [2]: 0 | Growth Rate [3]: 0 | Growth Rate [4]: 0

CNC(=O)c1ccc(Nc2nc(OC3CCCC3)c3c(-c4ccc5nc(C)oc5c4)c[nH]c3n2)c(OC)c1
Growth Rate [1]: 0 | Growth Rate [8]: 0 | Growth Rate [2]: 0 | Growth Rate [3]: 0 | Growth Rate [4]: 0

Cn1nc(C(F)(F)F)cc1-c1cnc(N2CCc3cc(S(=O)(=O)Nc4c(F)cc(Cl)cc4F)cc(N4CCCC4=O)c32)nc1 [TP-020]
Growth Rate [1]: 0 | Growth Rate [6]: 1 | Growth Rate [2]: 0 | Growth Rate [9]: 1 | Growth Rate [3]: 1 | Growth Rate [10]: 0 | Growth Rate [4]: 0

O=C(Nc1ccc(-n2nc(-c3cccnc3)cc2C(F)(F)F)cn1)c1ccc(-c2ccccc2)c(F)c1 [BI 2049]
Growth Rate [1]: 0 | Growth Rate [6]: 0 | Growth Rate [2]: 0 | Growth Rate [3]: 0 | Growth Rate [4]: 0

O=C1NC(=O)C(c2cnc3ccccn23)=C1c1cn2c3c(cc(F)cc13)CN(C(=O)N1CCCCC1)CC2 [LY-2090314]
Growth Rate [7]: 1 | Growth Rate [6]: 0 | Growth Rate [2]: 0 | Growth Rate [3]: 0 | Growth Rate [4]: 0
